Test results reported in patent US20050171032A1, “Methods for the treatment of cancer” (priority 2002, published 2005).

Legend:
LNCaP-Cav-1 cells = assay: EGFR and Akt1 phosphorylation by immunoblot, caveolin-1 transfected LNCaP cells; assay type: cell-based, human; details: 2 μg/ml filipin 1 h, 5 ng/ml EGF 20 min, FIG. 4F
Method: LNCaP cells were used for all experiments shown. Prior to challenge with EGF (2 or 20 ng/ml), some groups of cells were treated with filipin (2 μg/ml) (lanes 7-12) for 1 h. Other cells (lanes 4-6, 10-12) were subsequently incubated with cyclodextrin/cholesterol complexes (Cholesterol) for 1 h to replete cholesterol (FIG. 4A). In this and subsequent panels, lysates were isolated following the various treatments and processed for immunoblot analysis. p-Akt refers to a phosphorylated form of Akt1 detected with a phospho-specific Ab (Ser-473). Cells were serum-starved overnight, then pretreated with 5 mM cyclodextrin for the indicated times (lanes 1-6), or treated for 1 h with varying concentrations of cyclodextrin (lanes 7-10), then treated immediately afterward with vehicle or with 5 ng/ml EGF (FIG. 4B). Cells were either mock-treated or treated with varying doses of filipin as indicated for 1 h followed by 5 ng/ml EGF treatment (FIG. 4C). Serum-containing medium was removed and cells were treated immediately with 2 μg/ml filipin alone under serum-free conditions for the times shown (FIG. 4D). No change in EGFR or Akt1 phosphorylation was observed when serum was removed and cells were not treated with filipin (not shown). […]

PC-3 cells = assay: EGFR and Akt1 phosphorylation by immunoblot, PC-3 cells; assay type: cell-based, human; details: 2 μg/ml filipin 1 h, 5 ng/ml EGF 20 min, FIG. 4F
Method: Prior to challenge with EGF (2 or 20 ng/ml), some groups of cells were treated with filipin (2 μg/ml) (lanes 7-12) for 1 h. […] In this and subsequent panels, lysates were isolated following the various treatments and processed for immunoblot analysis. p-Akt refers to a phosphorylated form of Akt1 detected with a phospho-specific Ab (Ser-473). […] LNCaP-Cav-1 cells and PC-3 cells were mock-treated or treated with 2 μg/ml filipin for 1 h at 37° C. […] Prior to the collection of cell lysates and immunoblot analysis, cells were stimulated with 5 ng/ml EGF for 20 min at 37° C.
Human PCa cell lines LNCaP and PC-3 were purchased from the American Type Culture Collection (ATCC; Rockville, Md.). Both cell lines were cultured in RPMI 1640 supplemented with 10% heat-inactivated FBS.

LNCaP cells [1] = assay: Apoptosis assays (TUNEL/flow cytometry, cell death detection ELISA, DNA ladder) in LNCaP cells; assay type: cell-based, human; details: serum-free, 20 μM LY294002 20 h, 2 μg/ml filipin 1 h, FIG. 3
Method: Apoptosis was quantified by TUNEL in combination with flow cytometry (FIG. 3A). LNCaP cells were seeded 24 h before treatments in 6-well plates at a density of 2-4×10^5/well. Conditions shown are: 20 h in serum-free medium (SFM); 20 μM LY294002 (LY); 20 μM LY294002 with 10 ng/ml EGF treatment (LY+E); 2 μg/ml filipin for 1 h (F); filipin treatment as (F) with 10 ng/ml EGF for 20 h (F+E); treatment with 2 μg/ml filipin and cyclodextrin/cholesterol complexes (C) for 1 h, followed by incubation with serum-free medium containing 20 μM LY294002 and 10 ng/ml EGF for 20 h (F+C+LY+E). Quantitative measurement of DNA fragmentation was performed with a cell death detection ELISA kit (FIG. 3B). […]
A quantitative sandwich ELISA was performed to measure mono- and oligonucleosomes in the cytoplasmic fraction of cell lysates according to the manufacturer's manual (Cell death detection ELISA) (Roche, Indianapolis, Ind.). Briefly, 1.5-2.0×10^5 cells/well were seeded in 6-well plates for 24 h, cell lysates were collected after various treatments as indicated, and the amount of histone-associated DNA fragments was quantified by spectrophotometric measurement of peroxidase activity retained in the immunocomplex (415 nm) against the substrate solution as a blank (490 nm). Apoptosis was also evaluated by the TUNEL method, using the In Situ Cell Death Detection Kit (Roche, Indianapolis, Ind.).

LNCaP cells [2] = assay: Cell viability by Trypan blue exclusion; assay type: cell-based, human; details: 1 h after filipin treatment, at the doses used; FIG. 2
Method: Mock- or filipin (2 μg/ml)-pretreated cells were incubated in serum-free medium with or without cholesterol/cyclodextrin (Cholesterol) complexes for 1 h at 37° C. followed by EGF treatment for 20 min. (FIG. 2A). All cells were subjected to SDEM and the I- and S-fractions analyzed by immunoblot. p-EGFR indicates EGFR phosphorylated on Y1173 detected with a phospho-specific Ab. Cell viability measured by Trypan blue exclusion 1 h after treatment of cells with filipin (FIG. 2B).

[3] = tested on: prostate glandular hyperplasia; details: dogs; published evidence (30); cited from earlier work
EGFR = EGFR phosphorylation by immunoblot of detergent fractions, LNCaP cells; assay type: cell-based, human
Method: Mock- or filipin (2 μg/ml)-pretreated cells were incubated in serum-free medium with or without cholesterol/cyclodextrin (Cholesterol) complexes for 1 h at 37° C. followed by EGF treatment for 20 min. […] All cells were subjected to SDEM and the I- and S-fractions analyzed by immunoblot. p-EGFR indicates EGFR phosphorylated on Y1173 detected with a phospho-specific Ab. Cell viability measured by Trypan blue exclusion 1 h after treatment of cells with filipin (FIG. 2B).
LNCaP cells were used for all experiments shown. Prior to challenge with EGF (2 or 20 ng/ml), some groups of cells were treated with filipin (2 μg/ml) (lanes 7-12) for 1 h. Other cells (lanes 4-6, 10-12) were subsequently incubated with cyclodextrin/cholesterol complexes (Cholesterol) for 1 h to replete cholesterol (FIG. 4A). In this and subsequent panels, lysates were isolated following the various treatments and processed for immunoblot analysis. p-Akt refers to a phosphorylated form of Akt1 detected with a phospho-specific Ab (Ser-473). Cells were serum-starved overnight, then pretreated with 5 mM cyclodextrin for the indicated times (lanes 1-6), or treated for 1 h with varying concentrations of cyclodextrin (lanes 7-10), then treated immediately afterward with vehicle or with 5 ng/ml EGF (FIG. 4B). […]

Akt1 = Akt1 phosphorylation (Ser-473) by immunoblot, LNCaP cells; assay type: cell-based, human; details: FIG. 4A
Method: LNCaP cells were used for all experiments shown. Prior to challenge with EGF (2 or 20 ng/ml), some groups of cells were treated with filipin (2 μg/ml) (lanes 7-12) for 1 h. Other cells (lanes 4-6, 10-12) were subsequently incubated with cyclodextrin/cholesterol complexes (Cholesterol) for 1 h to replete cholesterol (FIG. 4A). In this and subsequent panels, lysates were isolated following the various treatments and processed for immunoblot analysis. p-Akt refers to a phosphorylated form of Akt1 detected with a phospho-specific Ab ([…]). […] Cell lysates were isolated following the various treatments and processed for immunoblot analysis. p-Akt=phosphorylated form of Akt detected with a phospho-specific Ab ([…]). […] In these experiments the apoptosis of cells treated with simvastatin or mock-treated, with or without raft reconstitution, was quantified by cell death detection ELISA (Roche). Cells were either mock-treated or treated with various doses of simvastatin as indicated for 16 hours and the amount of apoptosis was quantified by ELISA and is graphically represented as absorbance at 405 nm-490 nm vs. dose of statin drug±SD from triplicate determinations (FIG. 6B). The cells were treated either in simvastatin (Sim; 10 μM) or simvastatin (Sim) and cyclodextrin/cholesterol complex (+cholesterol) for 4 hours and the amount of apoptosis was quantified by ELISA (FIG. 6C). […]

[4] = tested on: Human primary culture prostate epithelial cells; assay: Apoptosis by cell death detection ELISA in primary culture prostate epithelial cells; assay type: cell-based; details: various concentrations simvastatin, 16 hours; FIG. 7
Method: Human primary culture prostate epithelial cells were treated with various concentrations simvastatin or were mock treated as indicated at 37 °C for 16 hours. Subsequently the cells were lysed and apoptosis was quantified by cell death detection ELISA (Roche).

SMILES | ligand-induced Akt1 phosphorylation (LNCaP-Cav-1 cells) | ligand-induced EGFR phosphorylation (LNCaP-Cav-1 cells) | ligand-induced Akt1 phosphorylation (PC-3 cells) | ligand-induced EGFR phosphorylation (PC-3 cells) | apoptosis (LNCaP cells [1]) | cells that excluded Trypan blue (LNCaP cells [2]) | reduction of prostate glandular hyperplasia [3] | toxicity [3] | ligand-dependent EGFR phosphorylation in the I-fraction (EGFR; filipin pretreatment 2 μg/ml, then EGF 20 min, FIG. 2) | constitutive and EGF-induced EGFR phosphorylation (EGFR; varying filipin doses and times, FIG. 4A, C, D) | EGF-induced Akt1 phosphorylation (Akt1; 2 μg/ml filipin 1 h, 20 ng/ml EGF) | constitutive and EGF-induced Akt1 phosphorylation (Akt1; varying filipin doses and times, C, D) | apoptosis in normal prostatic cells [4]
CCCCC[C@@H](O)[C@H]1C(=O)O[C@H](C)[C@@H](O)/C=C/C=C/C=C/C=C/C=C(\C)[C@@H](O)C[C@H](O)C[C@H](O)C[C@H](O)C[C@H](O)C[C@H](O)C[C@@H]1O [filipin, Filipin] | suppressed | suppressed | suppressed | suppressed | stimulated apoptosis to a similar extent as the PI3K inhibitor | 100% | up to 75% | no toxicity | suppressed | decreased with filipin treatment in a dose- and time-dependent fashion | substantially reduced | decreased with filipin treatment in a dose- and time-dependent fashion | –
CCC(C)(C)C(=O)O[C@H]1C[C@@H](C)C=C2C=C[C@H](C)[C@H](CC[C@@H]3C[C@@H](O)CC(=O)O3)[C@H]21 [simvastatin] | – | – | – | – | – | – | – | – | – | – | – | – | does not cause apoptosis
